Laboratory results published in US20140259881A1, “EXTERMINATION TECHNIQUES UTILIZING TERMITE EGG VOLATILE CALLING PHEROMONE AND QUEEN PHEROMONE” (National University Corporation Okayama University, priority 2009, published 2014).
Entries after “also recorded” stand apart in the source; their conditions may differ.

Tests used:
[1] = system: Reticulitermes speratus worker termites; assay: Rate of carrying mimic eggs coated with reference pheromone plus volatile test sample into the egg mass; format: in vivo; settings: 10% aqueous solution of sample added to lysozyme + β-glucosidase reference pheromone on 0.5 mm glass beads, 25° C., compared to no addition, Tukey-Kramer HSD test
Description: 2.0 mg of white-egg lysozyme and 1.0 mg of β-glucosidase were dissolved in a 50% aqueous solution of glycerol (a mixture of lysozyme and β-glucosidase). To this reference pheromone solution were added a 10% aqueous solution of each of the following volatile ingredient samples to examine the effect of enhancing the activity of carrying mimic eggs. The added samples were: butyl butyrate, 1-butanol, 2-butyl butyrate, 2-butanol, 2-methyl-1-butanol, and n-butyl acetate.
To 100 glass beads having a diameter of 0.5 mm were added 2.0 μL/bead of the above-described reference pheromone solution and 2.0 μL/bead of each of the test sample solutions and mixed well for coating the surface of the beads with each test sample.
At 24 hours after the start of the experiment, the rate of carrying mimic eggs into the egg mass was determined (for each of the test samples, experiments were made on the same procedures). Three repetitions were made for each treatment. Carrying rates were subjected to arcsine-root transformation, followed by statistical comparison by analysis of variance and Tukey-Kramer HSD test. […] FIGS. 6 to 11 show rates of carrying mimic eggs coated with each of the test samples into the egg mass after 24 hours.

termite = settings: patent documents 2 and 3; cited from earlier work
[2] = system: Reticulitermes speratus worker termites; assay: Inhibitory effect on the differentiation into new termite queens by queen volatile pheromone samples; settings: volatile from unglazed ball, added every day; 25 days; 25° C.; compared to controls; Tukey-Kramer HSD test
[3] = system: Reticulitermes speratus worker termites; assay: Rate of carrying mimic eggs coated with reference pheromone plus volatile test sample into the egg mass; format: in vivo; settings: preliminary experiments

Compound	activity of carrying mimic eggs / egg recognition activity (rate of carrying mimic eggs after 24 hours) [1]	also measured
CCCCOC(=O)CCC [butyl butyrate]	no statistical significance, but were observed to have a tendency to enhance the activity of carrying mimic eggs; also recorded: enhance the activity of carrying mimic eggs, as compared to no addition, but there was no difference of statistical significance	
CCCCO [1-butanol]	remarkable increase in the egg recognition activity; also recorded: significantly enhance the activity of carrying mimic eggs	
CCC(C)O (stereo not drawn) [2-butanol]	remarkable increase in the egg recognition activity; also recorded: significantly enhance the activity of carrying mimic eggs	
lysozyme		egg-recognition pheromone activity alone (termite): demonstrated to have egg-recognition pheromone activity alone
CCCCOC(C)=O [n-butyl acetate, reference compound]	no effect of enhancing the activity of carrying mimic eggs	differentiation from worker termite into new termite queens [2]: no effect of inhibiting the differentiation into new termite queens
CCC(C)CO (stereo not drawn) [2-methyl-1-butanol]	remarkable increase in the egg recognition activity; also recorded: significantly enhance the activity of carrying mimic eggs	
CCCC(=O)O [butyric acid]		effect of increasing the egg-carrying activity [3]: no effect of increasing the egg-carrying activity
CCCC(=O)OC(C)CC (stereo not drawn) [2-butyl butyrate]	no statistical significance, but were observed to have a tendency to enhance the activity of carrying mimic eggs; also recorded: enhance the activity of carrying mimic eggs, as compared to no addition, but there was no difference of statistical significance	
